Reference: patent publication US7189751B2, “Oxa(thia)zolidine compounds, process for preparation thereof and anti-inflammatory agents” (Nippon Soda Co., Ltd., priority 2001, dated 2007)

Target: T1, IV-cPLA(2) in activated U937 cells (Homo sapiens, UniProt P47712)
T1 sequence (P47712 1-749): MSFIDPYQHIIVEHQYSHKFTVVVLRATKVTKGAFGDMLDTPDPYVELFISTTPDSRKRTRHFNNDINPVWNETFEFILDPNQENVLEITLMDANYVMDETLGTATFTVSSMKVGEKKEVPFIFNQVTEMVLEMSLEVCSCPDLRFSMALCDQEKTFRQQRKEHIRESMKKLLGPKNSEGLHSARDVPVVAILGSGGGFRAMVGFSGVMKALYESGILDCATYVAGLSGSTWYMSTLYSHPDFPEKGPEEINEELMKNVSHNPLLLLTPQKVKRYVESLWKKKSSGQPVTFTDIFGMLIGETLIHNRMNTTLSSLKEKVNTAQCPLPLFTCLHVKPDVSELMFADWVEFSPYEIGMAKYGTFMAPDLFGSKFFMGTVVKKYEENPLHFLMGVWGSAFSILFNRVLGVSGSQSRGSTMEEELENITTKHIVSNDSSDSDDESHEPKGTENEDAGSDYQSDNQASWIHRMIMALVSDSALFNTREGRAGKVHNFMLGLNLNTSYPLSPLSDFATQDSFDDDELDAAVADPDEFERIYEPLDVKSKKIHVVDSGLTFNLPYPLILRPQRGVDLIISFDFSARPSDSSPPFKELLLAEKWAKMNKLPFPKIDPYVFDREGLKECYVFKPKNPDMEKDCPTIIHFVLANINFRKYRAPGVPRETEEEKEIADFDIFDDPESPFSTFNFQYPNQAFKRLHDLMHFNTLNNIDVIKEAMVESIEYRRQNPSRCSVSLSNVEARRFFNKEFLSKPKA
Assay: PLA(2) activity: hydrolysis of bis-BODIPY FL C11-PC in TPA/A23187-activated U937 cells
Assay type: cell-based
Conditions: U-937; Concentration 10 μM; inflammatory activated PLA(2) activity, U937 cells
Procedure: The PLA(2) activity was measured by quantitatively analyzing the fluorescent product of hydrolysis from 1,2-bis-(4,4-difluoro-5,7-dimethyl-4-bora-3a,4a-diaza-s-indecene-3-undecanoyl)-sn-glycero-3-phosphocholine (hereinafter referred to bis-BODIPY®FL C11-PC, Molecular probes, Inc., B-7701) using activated U937 cells (human monoblastic lymphoma cell line) by inflammatory stimulus (Meshulam, T. et al., The journal of Biological Chemistry 267 (30): 21465–21470 (1992); and Solito, E. et al., British Journal of Pharmacology 124: 1675–1683(1998).). The substrate bis-BODIPY®FL C11-PC is incorporated into cellular membranes, the proximity of the BODIPY®FL fluorophores on adjacent phospholipid acyl chains causes fluorescence self-quenching. Separation of the fluorophores upon hydrolytic cleavage of one of the acyl chains by PLA(1) or the PLA(2) results in increased fluorescence. […]
The test compound was dissolved with DMSO at 30 mM, and the solution diluted with either DMSO or the Assay medium before addition into the reaction mixture. […] The increased fluorescence of the hydrolysis product by the enzyme was determined by measuring the fluorescence emission intensity at 535 nm with excitation at 485 nm from the top side of each plate at 37° C., using a Multi Functional Microplate Reader SPECTRA FLUOR PLUS (TECAN Austria GmbH). […]

inhibition at 10 µM: 99%
SMILES: CCOC(=O)C(=C1N[C@@H](C)[C@H](c2ccc(Cl)cc2)S1)[N+](=O)[O-] (relative stereo) [Compound 2-29, Trans-5-(4-chlorophenyl)-4-methyl-2-(1-ethoxycarbonyl-1-nitromethylene)-thiazolidine]
